In patent US20230150920A1, “SALTS AND SOLID FORMS OF 4-BROMO-2,5-DIMETHOXYPHENETHYLAMINE” (priority 2021, published 2023):
Where a name gives a salt, the structure may show the parent alone.

Key:
[1] = Solubility estimate by adding solvent aliquots to weighed solid, dissolution judged visually; details: thermodynamic from solid
[2] = Dynamic vapor sorption (DVS) with XRPD of the post-DVS sample; assay type: physicochemical; details: for hygroscopicity based on DVS data / moisture gain by DVS / moisture gain by DVS, equivalent moles of water: 25° C.; for hygroscopicity based on DVS data: 5 to 95% RH; for moisture gain by DVS / moisture gain by DVS, equivalent moles of water: adsorption 5 to 95% RH; for post-DVS XRPD result: XRPD of the post-DVS sample; for DVS desorption weight loss, 85-5% RH: desorption 85-5% RH; for DVS desorption weight loss, 95-85% RH: desorption 95-85% RH; for behaviour on desorption / form change by XRPD of post-DVS sample: desorption 95 to 5% RH; for DVS sorption weight gain, 5-85% RH: sorption 5-85% RH; for DVS sorption weight gain, 85-95% RH: sorption 85-95% RH
Experimental: Dynamic Vapor Sorption (DVS) analysis was carried out using a TA Instruments Q5000 Dynamic Vapor Sorption analyzer. The instrument was calibrated with standard weights and a sodium bromide standard for humidity. Approximately 10-25 mg of sample was loaded into a metal-coated quartz pan for analysis. The sample was analyzed at 25° C. with a maximum equilibration time of one hour in 10% relative humidity (RH) steps from 5 to 95% RH (adsorption cycle) and from 95 to 5% RH (desorption cycle). The movement from one step to the next occurred either after satisfying the equilibrium criterion of 0.01% weight change or, if the equilibrium criterion was not met, after one hour. The percent weight change values were calculated using Microsoft Excel.
(§1) The DVS analysis was carried out using a TA Instruments Q5000 Dynamic Vapor Sorption analyzer. 13.5 mg of sample was loaded into a metal-coated quartz pan for analysis. After equilibration to 5% relative humidity (RH), the sample was analyzed at 25° C. in 10% RH steps from 5 to 95% RH (adsorption cycle) and from 95 to 5% RH (desorption cycle). The movement from one step to the next occurred either after satisfying the equilibrium criterion of 0.01% weight change in 5 minutes or, if the equilibrium criterion was not met, after 90 minutes. The percent weight change values are calculated using Microsoft Excel®.
as §1, with “DVS analyses were” for “DVS analysis was”, “analyzer. Approximately 7-11” for “analyzer. 13.5”, “equilibration at” for “equilibration to”, “values were” for “values are”
as §1, with “analyzer. Approximately 2” for “analyzer. 13.5”, “equilibration at” for “equilibration to”, “values were” for “values are”

[3] = Dynamic vapor sorption/desorption (DVS), hygroscopicity; assay type: physicochemical; details: for Hygroscopicity: grade in words, from DVS
Experimental: The active pharmaceutical ingredient (API), 4-bromo-2,5-dimethoxyphenethylamine hydrochloride, is characterized to evaluate its physical properties. The evaluation is performed by X-ray powder diffraction (XRPD), polarized light microscopy (PLM), differential scanning calorimetry (DSC), thermogravimetry (TG), dynamic vapor sorption/desorption (DVS), and/or solubility testing in organic solvents, water, and mixed solvent systems. XRPD data are used to assess crystallinity. PLM data are used to evaluate crystallinity and particle size/morphology. DSC data are used to evaluate melting point, thermal stability, and crystalline form conversion. TG data are used to evaluate if the API is a solvate or hydrate, and to evaluate thermal stability. DVS data are used to evaluate hygroscopicity of the API and if hydrates can be formed at high relative humidity.
The form characterized in FIGS. 1 and 2 is designated as Form A herein. […] A sharp endotherm at 238° C. in the DSC thermogram is attributed to melting.

[4] = Estimated solubilities of 2C-B HCl in solvents; details: thermodynamic from solid
[5] = Experimental: Solubilities in water were estimated for the majority of the salts identified during screening. The experiments were carried out by adding water in aliquots to weighed portions of solid. […] Values are reported as “≥” if complete dissolution was observed upon the first aliquot.
[6] = Deliquescence at 75% RH at ambient temperature; assay type: physicochemical
[7] = MeOH/CHCl3 50/50, organic solvent or mixture
[8] = acetone, organic solvent or mixture
[9] = acetone/H2O 80/20, organic solvent or mixture
[10] = several days at 75% RH at ambient temperature

| Molecule | hygroscopicity based on DVS data [2] | moisture gain by DVS [2] | moisture gain by DVS, equivalent moles of water [2] | post-DVS XRPD result [2] | DVS desorption weight loss, 85-5% RH [2] | DVS desorption weight loss, 95-85% RH [2] | behaviour on desorption / form change by XRPD of post-DVS sample [2] | DVS desorption total loss [2] | DVS sorption weight gain, 5-85% RH [2] | DVS sorption weight gain, 85-95% RH [2] | DVS sorption total gain [2] | Hygroscopicity: weight gain ([3]; <85% RH) | Hygroscopicity: weight gain ([3]; >85% RH) | Hygroscopicity [3] | deliquescence ([6]; at 75% RH) | deliquescence [6, 10] | also measured |
| --- | --- | --- | --- | --- | --- | --- | --- | --- | --- | --- | --- | --- | --- | --- | --- | --- | --- |
| COc1cc(CCN)c(OC)cc1Br [2C-B.HCl, 4-bromo-2,5-dimethoxyphenethylamine hydrochloride] |  |  |  |  |  |  |  |  |  |  |  |  |  |  |  |  | solubility [1, 7]: 41 mg/mL; solubility [1, 8]: < 2 mg/mL; solubility [1, 9]: > 79 mg/mL; solubility ([1]; acetonitrile, organic solvent or mixture): < 1 mg/mL; solubility ([1]; ethanol, organic solvent or mixture): 13 mg/mL; solubility ([1]; ethyl acetate, organic solvent or mixture): < 2 mg/mL; solubility ([1]; isopropanol, organic solvent or mixture): < 2 mg/mL; solubility ([1]; methanol, organic solvent or mixture): 41 mg/mL; solubility ([1]; tetrahydrofuran, organic solvent or mixture): < 2 mg/mL; solubility ([1]; water): 34 mg/mL |
| COc1cc(CCN)c(OC)cc1Br.Cl [2C-B HCl, 4-bromo-2,5-dimethoxyphenethylamine HCl] |  |  |  |  |  |  |  |  |  |  |  |  |  |  |  |  | post-DVS XRPD ([2]; solid form after DVS cycle): Form A; DVS Sorption: weight gain ([3]; 5-95% RH): 5-95% RH: 0.9% gain; DVS Desorption: weight loss ([3]; 95-5% RH): 95-5% RH: 1.0% loss; solubility ([4]; ACN, organic solvent or mixture): < 1 mg/mL; solubility ([4]; EtOAc, organic solvent or mixture): < 2 mg/mL; solubility ([4]; EtOH, organic solvent or mixture): 13 mg/mL; solubility ([4]; H2O, water): 34 mg/mL; solubility ([4]; IPA, organic solvent or mixture): < 2 mg/mL; solubility ([4]; MeOH, organic solvent or mixture): 41 mg/mL; solubility [4, 7]: 41 mg/mL; solubility ([4]; THF, organic solvent or mixture): < 2 mg/mL; solubility [4, 8]: < 2 mg/mL; solubility [4, 9]: ≥ 79 mg/mL |
| 2C-B malate | slightly hygroscopic | 1.6% | approximately 0.4 moles | Consistent with Malate | 85-5% RH: 0.6% loss | 95-85% RH: 1.0% loss | all the gained moisture is lost without form change | Total loss: 1.6% | 5-85% RH: 0.6% gain | 85-95% RH: 1.0% gain | Total gain: 1.6% | RH: 0.6% | RH: 1.0% gain | Slightly | Did not deliquesce | not observed | Kinetic water solubility [5]: 6 mg/mL; estimated kinetic solubility in water ([5]; room temperature, visually determined): 6 mg/mL; aqueous solubility (kinetic) ([5]; water, kinetic estimate): 6 mg/mL aqueous; Estimated kinetic aqueous solubility ([5]; water, room temperature, * = a few particulates/flakes remaining (see comments)): 6 mg/mL; Water uptake (5-85% RH) % ([3]; 5-85% RH part of sorption): 0.6%; Water uptake (85-95% RH) % ([3]; 85-95% RH part of sorption): (5-85); 1 (85-95) %; Water uptake (5-95% RH) % ([3]; total, 5-95% RH): 1.6% |
| COc1cc(CCN)c(OC)cc1Br.CS(=O)(=O)O [Mesylate, 2C-B mesylate] | hygroscopic | 7.2% | approximately 1.5 moles | Consistent with Mesylate | 85-5% RH: 3.0% loss | 95-85% RH: 4.4% loss | form change is not apparent by XRPD | Total loss: 7.4% | 5-85% RH: 2.7% gain | 85-95% RH: 4.5% gain | Total gain: 7.2% | RH: 2.7% | RH: 4.5% gain | Hygroscopic; <85% | Did not deliquesce | not observed |  |
